In patent US12616689B2, “Regimens of tafenoquine for prevention of malaria in malaria-naive subjects” (60 Degrees Pharmaceuticals, Inc., priority 2014, dated 2026):

What was measured:
[1] = in vivo; cited from earlier work
[2] = test system: Plasmodium falciparum malaria; settings: regimens of 50, 100, 200 and 400 mg; cited from earlier work
[3] = test system: blood stages of P. falciparum; settings: cited from earlier work
malaria = settings: cited from earlier work
[4] = test system: chloroquine sensitive and resistant P. vivax; settings: Aotus monkeys; cited from earlier work
P. berghei = settings: cited from earlier work
[5] = Population PK analysis (NONMEM one-compartment model) of plasma tafenoquine concentrations pooled from ten Phase I/II/III clinical studies, with bootstrap evaluation; assay type: in vivo, human; design: key to ωCL^2, variance of inter-individual random effect on CL, final NONMEM estimate / ωV^2, variance of inter-individual random effect on V, final NONMEM estimate / ωKa^2, variance of inter-individual random effect on Ka, final NONMEM estimate / ωCL^2, Bootstrap Estimate / ωV^2, Bootstrap Estimate / ωKa^2, Bootstrap Estimate: variance of ηi, where Pi = P·exp(ηi)
Experimental: Pharmacokinetic (PK) data from several studies (Phase I/II/III) was modeled to establish a consolidated model of tafenoquine and to determine relevant covariates. More specifically, analysis was performed using data obtained from ten Phase I/II/III clinical studies of tafenoquine (U.S. Army Study Numbers: 1, 2, 3, 4, 5, 14, 15, 33, 44 and 58). Table 2 summarizes the key features of each of the studies included in the pooled dataset such as the study type and design, dose and dosing regimen, population, and sample collection schemes. A total of 866 subjects were included in the population analysis. Ninety-three percent of the subjects were male.
The tafenoquine concentrations of plasma samples across the ten studies were analyzed using a validated high-performance liquid chromatography-mass spectrometry method (HPLC-MS) or HPLC with fluorescence detection as previously described (see, Kocisko D A, Walsh D S, Eamsila C, Edstein M D. Measurement of tafenoquine (WR 238605) in human plasma, and venous and capillary blood by high-pressure liquid chromatography. Ther Drug Monit. 2000; 22:184-189; Charles B G, Miller A K, Nasveld P E, Reid M G, Harris I E, Edstein M D. Population pharmacokinetics of tafenoquine during malaria prophylaxis in healthy subjects. Antimicrob Agents Chemother. 2007; 51:2709-2715.
Population PK analyses were carried out using NONMEM version 7.1.2, PDx-Pop version 4.2 (Icon Development Solutions, Hanover, MD) and Intel Visual Fortran Compiler version 12 on a Microsoft Windows XP platform. Plasma tafenoquine concentrations, demographic information and clinical laboratory results from ten studies were used to build a pooled NONMEM input data file for the current population PK analysis. The data were prepared for analysis using SAS software version 9.1.3 (SAS Institute Inc., Cary, NC). Actual dosing and actual blood sampling times, when available, were used for the analysis. Plasma tafenoquine concentrations that were below or equal to the limit of quantification were excluded from the analysis.
Based on the PK profile of tafenoquine from previous modeling efforts (Shanks G D, Oloo A J, Aleman G M, et al. A new primaquine analogue, tafenoquine (WR 238605), for prophylaxis against Plasmodium falciparum malaria. Clin Infect Dis. 2001; 33:1968-1974; Obaldia N 3rd, Rossan R N, Cooper R D, et al. WR 238605, chloroquine, and their combinations as blood schizonticides against a chloroquine-resistant strain of Plasmodium vivax in Aotus monkeys. Am J Trop Med Hyg. 1997; 56:508-10), a one-compartment PK model with first-order absorption and elimination processes was selected to describe best the pharmacokinetics of tafenoquine. As part of the modeling process, a two-compartment PK model with first-order absorption and elimination process was also explored and discarded. The one-compartment PK model was specified in the NONMEM control file and was parameterized in terms of apparent clearance (CL/F), apparent volume of distribution (V/F) and absorption rate constant (Ka) using the PREDPP ADVAN2 with TRANS2 subroutine in NONMEM. First-order conditional estimation (FOCE) with interaction between variance of inter-individual variability and the variance of residual error was used as the estimation method. Inter-individual variability was best described by an exponential error model, as shown below: Pi=Pexp(ηi) • where: • Pi is the estimated parameter for the i^th individual. • P is the population value for the parameter. • ηi are inter-individual random effects for the i^th individual for parameter P and were assumed to be independent and symmetrically distributed with a zero mean and a variance ω^2.
Different structural models (additive, proportional, exponential and combined additive and proportional) were investigated for residual unexplained variability (RUV). RUV was best described by a proportional error model, as shown below: […]

[6] = cited from earlier work
[7] = final PK model, coefficient of variation

SMILES: COc1cc(NC(C)CCCN)c2ncccc2c1 (stereo not drawn) [primaquine]
- Half-life [1]: hours

SMILES: COc1cc(C)c2c(Oc3cccc(C(F)(F)F)c3)c(OC)cc(NC(C)CCCN)c2n1 (stereo not drawn) [tafenoquine, -[2,6-Dimethoxy-4-methyl-5-[3-(trifluoromethyl)phenoxy]quinolin-8-yl]pentane-1,4-diamine]
- Reduction in microscopically confirmed parasitemia [2]: statistically significant reductions
- Activity against blood stages of P. falciparum in vitro [3]: active
- Protective efficacy (malaria; 200 mg daily for three days, then 200 mg weekly, 95% CI 93%-100%): 100%
- Malaria breakthroughs (malaria; reference regimen, non-immune, primarily Caucasian Australian soldiers): no malaria breakthroughs were observed
- Cure of chloroquine sensitive and resistant P. vivax infections [4]: cured
- Activity against P. berghei in mice in vivo (P. berghei): active
- COVCL,V, Bootstrap Estimate ([5]; 1000 bootstrap samples): 0.0250
- θCL, Bootstrap Estimate ([5]; 1000 bootstrap samples): 4.15
- θCL-AGE, Bootstrap Estimate ([5]; 1000 bootstrap samples): −0.200
- θCL-WT, Bootstrap Estimate ([5]; 1000 bootstrap samples): 0.554
- θKA, Bootstrap Estimate ([5]; 1000 bootstrap samples): 0.351
- θV, Bootstrap Estimate ([5]; 1000 bootstrap samples): 2482
- θV-FOOD, Bootstrap Estimate ([5]; 1000 bootstrap samples): 0.810
- θV-WT, Bootstrap Estimate ([5]; 1000 bootstrap samples): 0.774
- σ^2, Bootstrap Estimate ([5]; 1000 bootstrap samples): 0.0486
- ωCL^2, Bootstrap Estimate ([5]; 1000 bootstrap samples): 0.0536
- ωKa^2, Bootstrap Estimate ([5]; 1000 bootstrap samples): 0.283
- ωV^2, Bootstrap Estimate ([5]; 1000 bootstrap samples): 0.0521
- Inter-individual variability associated with CL/F before inclusion of covariates WT and age ([5]; base model, without covariates): 26.5%
- Inter-individual variability of V/F before inclusion of covariates WT and meal condition ([5]; base model, without covariates): 29.6%
- Vd/F ([5]; both sexes, human, plasma, oral, final PK model, WT 75 kg, fasted, read-out: θV, population apparent volume of distribution (V/F), final NONMEM estimate): 2470 L
- COVCL,V, covariance, final NONMEM estimate ([5]; final PK model): 0.0289
- θV-WT, exponent of weight effect on V/F, final NONMEM estimate ([5]; final PK model): 0.781
- σ^2, variance of the proportional residual random effect, final NONMEM estimate ([5]; final PK model): 0.0488
- ωCL^2, variance of inter-individual random effect on CL, final NONMEM estimate ([5]; final PK model): 0.0555
- ωKa^2, variance of inter-individual random effect on Ka, final NONMEM estimate ([5]; final PK model): 0.293
- ωV^2, variance of inter-individual random effect on V, final NONMEM estimate ([5]; final PK model): 0.0583
- θV-FOOD, food effect on V/F, final NONMEM estimate ([5]; final PK model, FOOD = 0 fasted, 1 fed): 0.822
- Inter-individual variability of CL/F [5, 7]: 23.6%
- Inter-individual variability of Ka [5, 7]: 54.1%
- Inter-individual variability of V/F [5, 7]: 24.1%
- Ka, first-order absorption rate constant, final NONMEM estimate ([5]; oral, final PK model): 0.359 h⁻¹
- θCL, population apparent clearance (CL/F), final NONMEM estimate ([5]; oral, final PK model, WT 75 kg, age 25 y): 4.17 L/h
- Half-life [1]: weeks
- Incidence of gastrointestinal adverse events relative to 400 mg once daily or BID for three days (total dose 1200 mg) ([6]; 200 mg once daily for three days (total dose 600 mg)): approximately half
- Threshold dose considered safe in G6PD-deficient individuals ([6]; G6PD-deficient individuals): 300 mg
- Safety and tolerability of a loading dose of 400 mg once daily for three days ([6]; G6PD-normal individuals): safe in G6PD-normal individuals in several clinical studies but exhibits gastrointestinal intolerability
- Tolerability of a 400 mg dose ([6]; human, in vivo): less well tolerated
